Source: article PMC5831858, “Pharmacological characterisation of CR6086, a potent prostaglandin E2 receptor 4 antagonist, as a new potential disease-modifying anti-rheumatic drug” (Arthritis Research & Therapy, 2018)
Marks after values point to notes of the source that are not given here.

Legend:
5-HT2A = 5-HT2A (Homo sapiens, UniProt P28223); assay: Serotonin receptor 5-HT2A binding; settings: [^3H]ketanserin, Human recombinant HEK-293 cells, read-out: CR6086 Activity at 10µM
[1] = tested on: arthritic rats (collagen-induced arthritis model); assay: Mechanical hyperalgesia (PAM) in CIA rats; type: in vivo, rat; settings: 15 mg/kg, mean ± SEM
Method: Male Lewis rats were immunised by intradermal injection at the base of the tail with an emulsion containing 150 μg of bovine collagen type II (bCII) in complete Freund’s adjuvant (CFA) or received an injection with incomplete Freund’s adjuvant (sham group). Three weeks after the first immunisation, animals were boosted with the same procedure. Three days after booster injection, arthritis had developed in all animals but the sham group. Oedema was assessed via plethysmometer (Ugo Basile, Varese, Italy), and the animals were then randomised to treatment groups. Oedema measurement was performed again after 7 and 14 days of treatment. Animals were blindly scored by two different investigators for clinical signs of arthritis (redness, swelling, pain of hind limb joints) as follows: 0 = normal; 1 = mild but definite redness and swelling of the ankle or wrist or individual digits, regardless of the number of affected digits; 2 = moderate redness and swelling of ankle or wrist; 3 = severe redness and swelling of the entire paw including digits; and 4 = maximally inflamed limb with involvement of multiple joints. The mean of the scores assigned by the investigators was calculated.
In the comparative experiment vs rofecoxib, mechanical hyperalgesia was assessed at the end of treatment by using a digital pressure application measurement (PAM) device (Ugo Basile). Increasing pressure was applied to the lateral side of the knee until the animal attempted to escape or vocalised. The force required to elicit this response was measured in grams (gram-force). An optimal stimulus increase rate of 100 g/second was used, and mechanical thresholds were reached after approximately 10 seconds. This increase was visualised with a rate meter on the built-in display, so the pressure applied was visually controlled. At the end of the experiment, animals were killed, and their hind paws were explanted and processed for histology.

[2] = tested on: arthritic mice (collagen-induced arthritis model); assay: Serum anti-bCII IgG antibodies (ELISA), CIA mice third study; type: in vivo, mouse; settings: 30 mg/kg CR6086, end of treatment
Method: In a third study, mice were randomised into the following treatment groups: naive, vehicle, 30 mg/kg CR6086, 1 or 3 mg/kg MTX, with the latter administered alone or in combination with 30 mg/kg CR6086. CR6086 was administered orally once daily. MTX was administered intraperitoneally three times per week (every third day). Mice were treated with test drugs for 16 days.
At the end of the treatment period, animals were killed, and their paws were explanted and processed for histology. In the third study, the serum concentrations of immunoglobulin G (IgG) antibodies against bCII were measured by ELISA (catalogue number 2032; Chondrex, Redmond, WA, USA).

CXCR2 (IL-8B) = CXCR2 (IL-8B) (Homo sapiens, UniProt P25025); assay: CXCR2 receptor binding; settings: [^125I]IL-8, Human recombinant HEK-293 cells, read-out: CR6086 Activity at 10µM
Sequence of CXCR2 (IL-8B) (P25025 whole entry): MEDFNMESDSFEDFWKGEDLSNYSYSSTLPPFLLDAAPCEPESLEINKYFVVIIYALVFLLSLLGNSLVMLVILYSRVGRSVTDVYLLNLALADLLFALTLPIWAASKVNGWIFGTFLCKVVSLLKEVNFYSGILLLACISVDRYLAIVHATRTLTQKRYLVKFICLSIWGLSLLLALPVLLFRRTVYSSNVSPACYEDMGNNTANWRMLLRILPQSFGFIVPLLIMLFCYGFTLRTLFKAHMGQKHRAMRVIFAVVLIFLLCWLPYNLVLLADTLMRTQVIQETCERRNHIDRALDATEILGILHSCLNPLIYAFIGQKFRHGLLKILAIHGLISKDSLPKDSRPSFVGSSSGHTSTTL

PAC1 (PACAP) = PAC1 (PACAP) (Homo sapiens, UniProt P41586); assay: PAC1 receptor binding; settings: [^125I]PACAP1-27, Human recombinant CHO cells, read-out: CR6086 Activity at 10µM
Sequence of PAC1 (PACAP) (P41586 21-468): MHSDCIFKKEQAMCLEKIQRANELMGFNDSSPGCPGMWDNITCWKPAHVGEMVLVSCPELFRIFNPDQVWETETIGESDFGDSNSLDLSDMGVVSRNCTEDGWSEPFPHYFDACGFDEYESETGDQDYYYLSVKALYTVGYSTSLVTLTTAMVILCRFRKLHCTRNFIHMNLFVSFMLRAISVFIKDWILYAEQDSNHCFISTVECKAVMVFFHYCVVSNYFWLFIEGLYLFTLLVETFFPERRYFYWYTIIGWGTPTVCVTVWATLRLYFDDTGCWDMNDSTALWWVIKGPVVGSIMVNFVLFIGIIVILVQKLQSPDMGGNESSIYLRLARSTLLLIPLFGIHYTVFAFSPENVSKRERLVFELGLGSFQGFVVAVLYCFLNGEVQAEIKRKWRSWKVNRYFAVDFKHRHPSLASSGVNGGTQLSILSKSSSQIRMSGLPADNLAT

A2A = A2A (Homo sapiens, UniProt P29274); assay: Adenosine receptor A2A binding; settings: [^3H]CGS 21680, Human recombinant HEK-293 cells
Sequence of A2A (P29274 whole entry): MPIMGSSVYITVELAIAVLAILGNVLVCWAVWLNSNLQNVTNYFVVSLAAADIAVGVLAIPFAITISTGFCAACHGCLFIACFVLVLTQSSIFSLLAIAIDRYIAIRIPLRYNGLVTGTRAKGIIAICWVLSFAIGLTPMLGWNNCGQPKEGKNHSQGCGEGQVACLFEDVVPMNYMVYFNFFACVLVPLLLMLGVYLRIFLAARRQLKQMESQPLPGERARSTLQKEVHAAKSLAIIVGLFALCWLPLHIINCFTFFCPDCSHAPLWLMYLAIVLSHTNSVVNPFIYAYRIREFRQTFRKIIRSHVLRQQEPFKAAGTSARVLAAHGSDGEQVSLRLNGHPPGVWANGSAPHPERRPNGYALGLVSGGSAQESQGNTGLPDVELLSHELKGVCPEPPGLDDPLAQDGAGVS

Kv channel = assay: Ion channel Kv binding; settings: [^125I]α-dendrotoxin, Rat cerebral cortex
sst (non-selective) = assay: sst receptor (non-selective) binding; settings: [^125I]Tyr^11-somatostatin-14, AtT-20 cells
δ2 (DOP) = δ2 (DOP) (Homo sapiens, UniProt P41143); assay: Opioid receptor δ2 (DOP) binding; settings: [^3H]DADLE, Human recombinant CHO cells, read-out: CR6086 Activity at 10µM
Sequence of δ2 (DOP) (P41143 whole entry): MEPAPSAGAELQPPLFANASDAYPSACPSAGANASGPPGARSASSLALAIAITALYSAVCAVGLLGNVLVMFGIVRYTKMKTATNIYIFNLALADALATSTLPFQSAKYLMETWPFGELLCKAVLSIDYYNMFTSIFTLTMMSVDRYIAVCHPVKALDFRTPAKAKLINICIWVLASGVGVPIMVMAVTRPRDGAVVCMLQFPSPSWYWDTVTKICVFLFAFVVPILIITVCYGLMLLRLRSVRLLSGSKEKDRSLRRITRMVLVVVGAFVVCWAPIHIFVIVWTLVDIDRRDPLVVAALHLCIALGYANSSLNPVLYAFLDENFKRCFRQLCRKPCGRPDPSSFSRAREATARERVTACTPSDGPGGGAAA

5-HT7 = 5-HT7 (Homo sapiens, UniProt P34969); assay: Serotonin receptor 5-HT7 binding; settings: [^3H]LSD, Human recombinant CHO cells, read-out: CR6086 Activity at 10µM
SKCa channel = assay: Ion channel SKCa binding; settings: [^125I]apamin, Rat cerebral cortex
β1 = β1 (Homo sapiens, UniProt P08588); assay: Adrenergic receptor β1 binding; settings: [^3H](-)CGP 12177, Human recombinant HEK-293 cells, read-out: CR6086 Activity at 10µM
D4,4 = D4,4 (Homo sapiens, UniProt P21917); assay: Dopamine receptor D4,4 binding; settings: [^3H]methyl-spiperone, Human recombinant CHO cells, read-out: CR6086 Activity at 10µM
Sequence of D4,4 (P21917 whole entry): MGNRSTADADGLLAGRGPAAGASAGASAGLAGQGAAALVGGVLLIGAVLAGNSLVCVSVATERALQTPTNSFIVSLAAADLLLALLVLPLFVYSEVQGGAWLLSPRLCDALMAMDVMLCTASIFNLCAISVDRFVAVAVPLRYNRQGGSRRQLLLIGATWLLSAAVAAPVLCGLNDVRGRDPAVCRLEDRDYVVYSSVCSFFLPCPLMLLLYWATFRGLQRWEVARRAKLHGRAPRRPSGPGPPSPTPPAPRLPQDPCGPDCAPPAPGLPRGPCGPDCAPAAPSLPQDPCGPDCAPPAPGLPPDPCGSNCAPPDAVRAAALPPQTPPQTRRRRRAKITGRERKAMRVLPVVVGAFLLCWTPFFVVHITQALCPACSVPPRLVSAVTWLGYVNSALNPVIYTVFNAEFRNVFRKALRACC

M3 = M3 (Homo sapiens, UniProt P20309); assay: Muscarinic acetylcholine receptor M3 binding; settings: [^3H]4-DAMP, Human recombinant CHO cells, read-out: CR6086 Activity at 10µM
Sequence of M3 (P20309 whole entry): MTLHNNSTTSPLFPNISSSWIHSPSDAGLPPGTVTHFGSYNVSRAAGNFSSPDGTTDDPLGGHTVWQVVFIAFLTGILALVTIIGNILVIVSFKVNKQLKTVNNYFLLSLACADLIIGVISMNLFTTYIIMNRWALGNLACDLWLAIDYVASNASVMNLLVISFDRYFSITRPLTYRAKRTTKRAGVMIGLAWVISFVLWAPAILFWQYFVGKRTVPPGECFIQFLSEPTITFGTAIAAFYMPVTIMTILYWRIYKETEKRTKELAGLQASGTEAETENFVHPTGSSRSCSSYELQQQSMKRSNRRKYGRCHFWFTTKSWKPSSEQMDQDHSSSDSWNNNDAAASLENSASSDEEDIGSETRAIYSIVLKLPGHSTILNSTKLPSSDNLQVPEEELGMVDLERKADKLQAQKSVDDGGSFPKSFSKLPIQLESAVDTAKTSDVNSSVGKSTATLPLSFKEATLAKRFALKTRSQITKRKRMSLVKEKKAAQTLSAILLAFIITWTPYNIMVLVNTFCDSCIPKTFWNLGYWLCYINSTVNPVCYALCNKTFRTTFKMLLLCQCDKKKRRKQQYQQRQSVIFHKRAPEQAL

BZD (peripheral) = BZD (peripheral) (Rattus norvegicus, UniProt P16257); assay: Benzodiazepine receptor (peripheral) binding; settings: [^3H]PK 11195, Rat heart, read-out: CR6086 Activity at 10µM
5-HT2B = 5-HT2B (Homo sapiens, UniProt P41595); assay: Serotonin receptor 5-HT2B binding; settings: [^125I](±)DOI, Human recombinant CHO cells, read-out: CR6086 Activity at 10µM
IP (PGI2) = IP (PGI2) (Homo sapiens, UniProt P43119); assay: Eicosanoid receptor IP binding; settings: [^3H]iloprost, HEK-293 cells, read-out: CR6086 Activity at 10µM
VPAC1 (VIP1) = VPAC1 (VIP1) (Homo sapiens, UniProt P32241); assay: VPAC1 receptor binding; settings: [^125I]VIP, Human recombinant CHO cells, read-out: CR6086 Activity at 10µM
Sequence of VPAC1 (VIP1) (P32241 31-457): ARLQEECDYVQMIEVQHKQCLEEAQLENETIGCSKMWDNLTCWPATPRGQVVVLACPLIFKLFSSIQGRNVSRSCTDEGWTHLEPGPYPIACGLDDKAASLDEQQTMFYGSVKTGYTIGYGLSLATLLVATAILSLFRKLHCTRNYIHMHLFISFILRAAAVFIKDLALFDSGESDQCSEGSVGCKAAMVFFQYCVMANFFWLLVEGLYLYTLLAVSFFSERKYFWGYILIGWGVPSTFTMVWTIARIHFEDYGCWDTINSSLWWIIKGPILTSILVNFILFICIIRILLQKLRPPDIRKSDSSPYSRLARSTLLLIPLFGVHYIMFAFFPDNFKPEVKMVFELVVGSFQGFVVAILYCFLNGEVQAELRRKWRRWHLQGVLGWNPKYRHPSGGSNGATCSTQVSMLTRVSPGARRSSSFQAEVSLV

ETA = ETA (Homo sapiens, UniProt P25101); assay: Endothelin receptor ETA binding; settings: [^125I]endothelin-1, Human recombinant CHO cells, read-out: CR6086 Activity at 10µM
Sequence of ETA (P25101 21-427): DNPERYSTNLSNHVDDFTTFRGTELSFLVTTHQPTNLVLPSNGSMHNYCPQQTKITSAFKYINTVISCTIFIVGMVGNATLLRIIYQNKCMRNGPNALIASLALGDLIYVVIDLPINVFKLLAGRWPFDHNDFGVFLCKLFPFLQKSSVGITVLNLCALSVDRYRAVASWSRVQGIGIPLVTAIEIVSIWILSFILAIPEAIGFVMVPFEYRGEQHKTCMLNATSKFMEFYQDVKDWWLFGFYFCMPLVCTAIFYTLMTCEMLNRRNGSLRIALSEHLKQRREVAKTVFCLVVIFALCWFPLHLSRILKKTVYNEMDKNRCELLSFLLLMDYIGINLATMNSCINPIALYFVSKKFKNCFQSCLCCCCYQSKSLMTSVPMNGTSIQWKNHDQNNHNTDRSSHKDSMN

CGRP = CGRP (Homo sapiens, UniProt O60894+Q16602); assay: CGRP receptor binding; settings: [^125I]hCGRPα, Human recombinant CHO cells, read-out: CR6086 Activity at 10µM
Sequence of CGRP (Q16602 23-461): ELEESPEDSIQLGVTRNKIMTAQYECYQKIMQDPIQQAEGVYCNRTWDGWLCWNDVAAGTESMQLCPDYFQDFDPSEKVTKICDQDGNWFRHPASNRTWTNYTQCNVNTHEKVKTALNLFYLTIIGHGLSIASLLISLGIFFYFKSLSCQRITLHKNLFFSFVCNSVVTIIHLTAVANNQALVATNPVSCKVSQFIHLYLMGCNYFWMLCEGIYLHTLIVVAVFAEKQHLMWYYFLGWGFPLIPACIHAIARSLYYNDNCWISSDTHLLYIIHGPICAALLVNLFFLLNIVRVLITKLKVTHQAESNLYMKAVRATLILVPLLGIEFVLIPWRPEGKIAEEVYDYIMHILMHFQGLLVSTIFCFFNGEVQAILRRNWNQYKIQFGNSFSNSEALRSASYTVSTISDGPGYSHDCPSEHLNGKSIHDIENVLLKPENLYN
Sequence of CGRP (O60894 27-148): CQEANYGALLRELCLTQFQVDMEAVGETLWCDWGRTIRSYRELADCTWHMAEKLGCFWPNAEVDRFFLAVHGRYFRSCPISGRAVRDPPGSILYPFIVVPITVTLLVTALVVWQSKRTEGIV

Y2 = Y2 (Homo sapiens, UniProt P49146); assay: Neuropeptide Y receptor Y2 binding; settings: [^125I]peptide YY, KAN-TS cells, read-out: CR6086 Activity at 10µM
Sequence of Y2 (P49146 whole entry): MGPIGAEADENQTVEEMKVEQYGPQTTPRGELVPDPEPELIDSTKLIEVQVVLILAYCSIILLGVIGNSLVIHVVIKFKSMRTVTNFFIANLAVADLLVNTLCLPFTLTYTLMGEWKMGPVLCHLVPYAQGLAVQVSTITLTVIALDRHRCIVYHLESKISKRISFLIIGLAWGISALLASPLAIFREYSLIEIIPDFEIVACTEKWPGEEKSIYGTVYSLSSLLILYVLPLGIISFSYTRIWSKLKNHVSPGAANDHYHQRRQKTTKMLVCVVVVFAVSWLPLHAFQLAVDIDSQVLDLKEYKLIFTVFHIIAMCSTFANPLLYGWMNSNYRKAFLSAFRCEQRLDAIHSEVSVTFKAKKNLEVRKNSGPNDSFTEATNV

Sequence of 5-HT2A (P28223 whole entry): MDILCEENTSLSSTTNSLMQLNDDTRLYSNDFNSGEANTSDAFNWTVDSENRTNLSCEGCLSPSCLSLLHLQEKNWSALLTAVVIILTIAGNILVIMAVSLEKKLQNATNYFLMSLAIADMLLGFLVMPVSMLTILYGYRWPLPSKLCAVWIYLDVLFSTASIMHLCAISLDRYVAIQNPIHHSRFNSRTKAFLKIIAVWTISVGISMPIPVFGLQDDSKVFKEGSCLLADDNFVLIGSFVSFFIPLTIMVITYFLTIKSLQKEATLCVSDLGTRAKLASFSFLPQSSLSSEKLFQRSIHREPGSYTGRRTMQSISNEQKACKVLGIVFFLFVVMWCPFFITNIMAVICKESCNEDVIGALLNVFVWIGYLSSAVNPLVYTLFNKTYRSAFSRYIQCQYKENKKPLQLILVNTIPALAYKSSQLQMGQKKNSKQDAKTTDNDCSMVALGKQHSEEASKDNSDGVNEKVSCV

O=C([O-])c1ccc(C2(NC(=O)[C@H]3CC4(CCN3Cc3ccc(C(F)(F)F)cc3)CC4)CC2)cc1.[Na+] [CR6086, Sodium (R)-4-(1-(6-(4-(trifluoromethyl)benzyl)-6-azaspiro[2.5]octane-5-carboxamido)cyclopropyl)benzoate]
inhibition at 10 µM (5-HT2A): < 20%
Mechanical hyperalgesia, Day 0 ([1]; Day 0): 850.45 ± 59.57^a gram-force
Mechanical hyperalgesia, Day 7 ([1]; Day 7): 846.33 ± 43.60^b,c gram-force
Mechanical hyperalgesia, Day 14 ([1]; Day 14): 1023.09 ± 53.97^d gram-force
Anti-collagen II [2]: 324.91 ± 79.82 µg/mL
inhibition at 10 µM (CXCR2 (IL-8B)): < 20%
inhibition at 10 µM (PAC1 (PACAP)): < 20%
CR6086 Activity at 10µM (A2A): IN (IN = < 20% displacement or inhibition (all tables))
CR6086 Activity at 10µM (Kv channel): IN (IN = < 20% displacement or inhibition (all tables))
CR6086 Activity at 10µM (sst (non-selective)): IN (IN = < 20% displacement or inhibition (all tables))
inhibition at 10 µM (δ2 (DOP)): < 20%
inhibition at 10 µM (5-HT7): < 20%
CR6086 Activity at 10µM (SKCa channel): IN (IN = < 20% displacement or inhibition (all tables))
inhibition at 10 µM (β1): < 20%
inhibition at 10 µM (D4,4): < 20%
inhibition at 10 µM (M3): < 20%
inhibition at 10 µM (BZD (peripheral)): < 20%
inhibition at 10 µM (5-HT2B): < 20%
inhibition at 10 µM (IP (PGI2)): < 20%
inhibition at 10 µM (VPAC1 (VIP1)): < 20%
inhibition at 10 µM (ETA): < 20%
inhibition at 10 µM (CGRP): < 20%
inhibition at 10 µM (Y2): < 20%
